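The compound was tested at five concentrations on cells cultured in 96-well plates, with a 48-hour exposure period. At the GI50, growth is halved. Definition used: TGI = concentration required for complete inhibition of growth.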
Tests used:
Assay in all cases: DTP human tumour cell line panel, 48 h
[1] = system: HS 578T breast
[2] = system: OVCAR-8 ovarian
[3] = system: CAKI-1 renal
[4] = system: SK-MEL-2 melanoma
[5] = system: OVCAR-4 ovarian
[6] = system: NCI-H23 lung
[7] = system: HOP-92 NSCLC
[8] = system: K-562 leukemia
[9] = system: MDA-MB-231 breast
[10] = system: NCI/ADR-RES ovarian
[11] = system: HCT-15 colon
[12] = system: SF-268 CNS
[13] = system: T-47D breast
[14] = system: HT29 colon
[15] = system: KM12 colon
[16] = system: LOX IMVI melanoma
[17] = system: CCRF-CEM leukemia
[18] = system: UACC-257 melanoma
[19] = system: UO-31 renal
[20] = system: SN12C renal
[21] = system: RXF 393 renal
[22] = system: DU-145 prostate
[23] = system: SNB-19 CNS
[24] = system: SF-539 CNS
[25] = system: NCI-H522 lung
[26] = system: ACHN renal
[27] = system: MOLT-4 leukemia
[28] = system: HOP-62 NSCLC
[29] = system: NCI-H226 lung
[30] = system: A549 NSCLC
[31] = system: IGROV1 ovarian
[32] = system: SR leukemia
[33] = system: PC-3 prostate
[34] = system: SK-MEL-28 melanoma
[35] = system: SK-OV-3 ovarian
[36] = system: U251 CNS
[37] = system: HCT-116 colon
[38] = system: HCC-2998 colon
[39] = system: NCI-H460 lung
[40] = system: MCF7 breast
[41] = system: BT-549 breast
[42] = system: COLO 205 colon
[43] = system: MALME-3M melanoma
[44] = system: 786-0 renal
[45] = system: EKVX NSCLC
[46] = system: OVCAR-3 ovarian
[47] = system: TK-10 renal
[48] = system: SNB-75 CNS
[49] = system: M14 melanoma
[50] = system: UACC-62 melanoma
[51] = system: A498 renal
[52] = system: SW-620 colon
[53] = system: SF-295 CNS
[54] = system: MDA-MB-435
[55] = system: OVCAR-5 ovarian
[56] = system: SK-MEL-5 melanoma
[57] = system: RPMI-8226 leukemia
[58] = system: HL-60(TB) leukemia
[59] = system: MDA-N

Work on `COc1ccc2nc3ccccc3c(NCc3ccccc3)c2c1` yielded a GI50 [1] of 2190 nM, a TGI [1] of 5.57 µM and a GI50 [2] of 2.76 µM. For the same compound, the TGI [2] was 9.32 µM, the GI50 [3] was 1940 nM and the TGI [3] was 6.82 µM. For the same compound, the GI50 [4] was 2200 nM, the TGI [4] was 4.9 µM and the GI50 [5] was 2370 nM. It also gave a TGI [5] of 7.58 µM, a GI50 [6] of 1.95 µM and a TGI [6] of 5.52 µM. For the same compound, the GI50 [7] was 2330 nM, the TGI [7] was 7.88 µM and the GI50 [8] was 2430 nM. The TGI [8] was 11.5 µM, the GI50 [9] was 1850 nM and the TGI [9] was 4.38 µM. For the same compound, the GI50 [10] was 2090 nM, the TGI [10] was 6.69 µM and the GI50 [11] was 1830 nM. It also gave a TGI [11] of 4.46 µM, a GI50 [12] of 2940 nM and a TGI [12] of 9.71 µM. For the same compound, the GI50 [13] was 2690 nM, the TGI [13] was 8.89 µM and the GI50 [14] was 1800 nM. For the same compound, the TGI [14] was 6.23 µM, the GI50 [15] was 3.49 µM and the TGI [15] was 12.9 µM. The GI50 [16] was 1610 nM, the TGI [16] was 3.29 µM and the GI50 [17] was 2800 nM. For the same compound, the TGI [17] was 11.7 µM, the GI50 [18] was 2160 nM and the TGI [18] was 4.88 µM. For the same compound, the GI50 [19] was 1540 nM, the TGI [19] was 5.34 µM and the GI50 [20] was 2710 nM. The TGI [20] was 10.5 µM, the GI50 [21] was 1530 nM and the TGI [21] was 3.13 µM. The GI50 [22] was 3.18 µM, the TGI [22] was 10.3 µM and the GI50 [23] was 3.41 µM. For the same compound, the TGI [23] was 13.7 µM, the GI50 [24] was 1940 nM and the TGI [24] was 3.96 µM. For the same compound, the GI50 [25] was 1770 nM, the TGI [25] was 4.6 µM and the GI50 [26] was 2.01 µM. It also gave a TGI [26] of 5.97 µM, a GI50 [27] of 2.76 µM and a TGI [27] of 11.2 µM. It also gave a GI50 [28] of 2620 nM, a TGI [28] of 9.95 µM and a GI50 [29] of 2790 nM. It also gave a TGI [29] of 8.69 µM, a GI50 [30] of 1870 nM and a TGI [30] of 4.19 µM. It also gave a GI50 [31] of 2340 nM, a TGI [31] of 6.66 µM and a GI50 [32] of 1380 nM. For the same compound, the TGI [32] was 4.51 µM, the GI50 [33] was 2350 nM and the TGI [33] was 7.39 µM. It also gave a GI50 [34] of 1750 nM, a TGI [34] of 3.57 µM and a GI50 [35] of 2450 nM. It also gave a TGI [35] of 9.08 µM, a GI50 [36] of 2710 nM and a TGI [36] of 8.34 µM. It also gave a GI50 [37] of 1720 nM, a TGI [37] of 5.25 µM and a GI50 [38] of 1860 nM. For the same compound, the TGI [38] was 3.77 µM, the GI50 [39] was 2190 nM and the TGI [39] was 4.86 µM. The GI50 [40] was 2.01 µM, the TGI [40] was 4.89 µM and the GI50 [41] was 2160 nM. The TGI [41] was 5.18 µM, the GI50 [42] was 1540 nM and the TGI [42] was 3.54 µM. The GI50 [43] was 1750 nM, the TGI [43] was 3.22 µM and the GI50 [44] was 1800 nM. For the same compound, the TGI [44] was 3.38 µM, the GI50 [45] was 3.03 µM and the TGI [45] was 11.4 µM. The GI50 [46] was 2650 nM, the TGI [46] was 6.89 µM and the GI50 [47] was 3.79 µM. It also gave a TGI [47] of 13.1 µM, a GI50 [48] of 2480 nM and a TGI [48] of 10 µM. It also gave a GI50 [49] of 1.73 µM, a TGI [49] of 3.58 µM and a GI50 [50] of 2290 nM. The TGI [50] was 6.05 µM, the GI50 [51] was 1700 nM and the TGI [51] was 3.15 µM. For the same compound, the GI50 [52] was 1720 nM, the TGI [52] was 4.68 µM and the GI50 [53] was 2.13 µM. For the same compound, the TGI [53] was 5.86 µM, the GI50 [54] was 1910 nM and the TGI [54] was 3.93 µM. It also gave a GI50 [55] of 2250 nM, a TGI [55] of 7.35 µM and a GI50 [56] of 1760 nM. For the same compound, the TGI [56] was 3.17 µM, the GI50 [57] was 1930 nM and the TGI [57] was 4.49 µM. For the same compound, the GI50 [58] was 2150 nM and the TGI [58] was 4.81 µM.
Work on `COC(=O)CNC(=O)CSc1nnc(COc2ccc(Cl)cc2)n1-c1ccccc1` yielded a TGI [2] of 92.9 µM, a TGI [3] of 32.2 µM and a TGI [4] of 50.7 µM. For the same compound, the TGI [5] was greater than 100 µM, the TGI [6] was greater than 100 µM and the TGI [7] was greater than 100 µM. It also gave a TGI [8] greater than 100 µM, a TGI [9] of 49.1 µM and a TGI [10] greater than 100 µM. For the same compound, the TGI [11] was greater than 100 µM, the TGI [12] was 46.6 µM and the TGI [59] was 42.2 µM. The TGI [13] was greater than 100 µM, the TGI [14] was greater than 100 µM and the TGI [15] was greater than 100 µM. The TGI [16] was greater than 100 µM, the TGI [17] was greater than 100 µM and the TGI [18] was 75.8 µM. It also gave a TGI [19] of 77.3 µM, a TGI [20] of 38.5 µM and a TGI [21] of 51.1 µM. The TGI [22] was 33.6 µM, the TGI [23] was greater than 100 µM and the TGI [24] was greater than 100 µM. It also gave a TGI [25] of 34.7 µM, a TGI [26] of 55 µM and a TGI [27] greater than 100 µM. For the same compound, the TGI [28] was greater than 100 µM, the TGI [29] was greater than 100 µM and the TGI [30] was greater than 100 µM. It also gave a TGI [31] of 54 µM, a TGI [33] of 51.2 µM and a TGI [34] of 81.3 µM. It also gave a TGI [35] greater than 100 µM, a TGI [36] greater than 100 µM and a TGI [37] greater than 100 µM. The TGI [38] was 59.1 µM, the TGI [39] was greater than 100 µM and the TGI [40] was greater than 100 µM. For the same compound, the TGI [42] was greater than 100 µM, the TGI [43] was greater than 100 µM and the TGI [44] was 31.4 µM. The TGI [45] was greater than 100 µM, the TGI [46] was greater than 100 µM and the TGI [47] was 46.3 µM. For the same compound, the TGI [48] was 35.5 µM, the TGI [49] was greater than 100 µM and the TGI [50] was greater than 100 µM. For the same compound, the TGI [51] was greater than 100 µM, the TGI [52] was greater than 100 µM and the TGI [53] was greater than 100 µM. It also gave a TGI [54] of 48.4 µM, a TGI [55] greater than 100 µM and a TGI [58] greater than 100 µM.
`COc1cc([C@@H]2c3cc4c(cc3[C@@H](NC(=O)NO)[C@H]3COC(=O)[C@H]23)OCO4)cc(OC)c1O` showed a GI50 [2] of 34.4 µM, a TGI [2] greater than 100 µM and a TGI [3] greater than 100 µM. The TGI [4] was greater than 100 µM, the TGI [5] was greater than 100 µM and the GI50 [6] was 9.31 µM. The TGI [6] was greater than 100 µM, the TGI [7] was greater than 100 µM and the TGI [8] was greater than 100 µM. It also gave a TGI [9] greater than 100 µM, a TGI [10] of 93.1 µM and a TGI [11] greater than 100 µM. It also gave a TGI [12] greater than 100 µM, a TGI [59] of 5.13 µM and a TGI [13] greater than 100 µM. The TGI [16] was greater than 100 µM, the TGI [17] was greater than 100 µM and the TGI [18] was greater than 100 µM. The TGI [20] was greater than 100 µM, the GI50 [22] was 7.27 µM and the TGI [22] was greater than 100 µM. It also gave a TGI [23] greater than 100 µM, a TGI [24] greater than 100 µM and a TGI [25] greater than 100 µM. It also gave a GI50 [26] of 6.04 µM, a GI50 [27] of 4.87 µM and a TGI [27] greater than 100 µM. For the same compound, the TGI [28] was greater than 100 µM, the TGI [31] was greater than 100 µM and the TGI [32] was greater than 100 µM. The TGI [33] was greater than 100 µM, the TGI [36] was greater than 100 µM and the TGI [37] was greater than 100 µM. It also gave a GI50 [38] of 4060 nM, a TGI [38] greater than 100 µM and a TGI [39] greater than 100 µM. For the same compound, the GI50 [40] was 7.84 µM, the TGI [40] was greater than 100 µM and the TGI [42] was greater than 100 µM. The TGI [44] was greater than 100 µM, the TGI [45] was greater than 100 µM and the TGI [47] was greater than 100 µM. It also gave a GI50 [49] of 37 µM, a TGI [49] greater than 100 µM and a TGI [51] greater than 100 µM. The TGI [52] was greater than 100 µM, the GI50 [53] was 4.97 µM and the TGI [53] was greater than 100 µM. For the same compound, the TGI [57] was greater than 100 µM and the TGI [58] was greater than 100 µM.

Reference: PubChem BioAssay (NCI)
